Data published in publication PMC11324046, “Second-generation piperazine derivatives as promising radiation countermeasures” (RSC Medicinal Chemistry, 2024).

How the values were obtained:
[1] = tested on: Whole blood from healthy human donors; experiment: Dicentric chromosome assay (DCA); type: cell-based; settings: 3 Gy gamma
Experimental: The radioprotective effect of eight compounds was assessed using the cytogenetic method of DCA. DCA is known for its high sensitivity to radiation exposure and its specificity, and is thus considered a gold standard for biological dosimetry. It is also applicable to reveal the radioprotective potential of substances, as their effect is to protect DNA from forming dicentric chromosomes after IR exposure. This assay included six newly synthesized substances as well as amifostine (WR2721) and its active form (WR1065). WR2721 and WR1065 served as benchmarks, allowing us to measure the radioprotective effect of our compounds against these well-established radioprotectors. Whole blood from healthy human donors was utilized for DCA, and it was irradiated with 3 Gy gamma radiation after exposure to the tested compounds. Each experiment included irradiated and non-irradiated controls. The experiments were conducted at two different concentrations of the substances. For the newly synthesized compounds, 100 μM and an optimal non-toxic concentration which varied between 200–1000 μM were used. […] The results were interpreted as the number of dicentric chromosomes per cell.
To express the radioprotective effect the radioprotection factor (RF) was calculated as the […] (Table 2). RF expresses how many-fold the DC count in the sample decreased compared to the irradiated control.
Blood samples from healthy male donors were taken in heparinized tubes, with informed consent and the approval of a local ethics committee. Blood samples (1 ml) were treated with eight different substances (WR2721, WR1065, and 1–6) in two different concentrations. Non-treated irradiated and non-treated non-irradiated controls were included. All samples were exposed to a single dose of 3 Gy of gamma radiation (at the dose rate of 0.6 Gy min^−1, using the ^60Co Chisobalt, Chirana, Prague, Czech Republic). […] The dose of 3 Gy was selected to ensure a sufficient quantity of dicentric chromosomes in lymphocytes. Immediately after irradiation, the samples were placed in a humidified atmosphere with 5% CO2 at 37 °C for 30 min. Treated and irradiated blood samples were added to T-25 cultivation flasks containing 10 ml RPMI 1640 with 20% fetal bovine serum and 2% phytohaemagglutinin (all Gibco by Thermo Fisher Scientific, Waltham, MA, USA). Colcemid at a final concentration of 0.25 μg ml^−1 (Gibco by Thermo Fisher Scientific, Waltham, MA, USA) was added to each culture tube 48 h after culture initiation. Cells were cultivated for another 2 h and then harvested.
At the harvest time (total time 50 h), cell pellets obtained after centrifugation at 600 × g for 3 min were resuspended and treated with 10 ml of prewarmed 0.075 M solution of potassium chloride (Gibco by Thermo Fisher Scientific, Waltham, MA, USA) for 20 min. After another centrifugation, cells were treated three times with fixative solution consisting of 3 : 1 (v/v) methanol : acetic acid (penta Chemicals, Prague, Czech Republic). Fixed cells were dropped on ice-cold microscope slides, air-dried overnight, and stained with 5% Giemsa solution (P-Lab, Prague, Czech Republic) for 6 min. Prepared slides were evaluated using automated metaphase finding systems. The slides with metaphases were analyzed by Axio Imager 2 (Carl Zeiss Microscopy GmbH, Göttingen, Germany) and Metafer 4 software (MetaSystems Hard & Software GmbH, Altlußheim, Germany). At first, the images of the metaphases in lower magnification were acquired (MSearch TL mode). Following that, the images of good-quality metaphases in higher resolution were acquired (AutoCapt mode). The data obtained were analyzed manually (manual selection of good-quality metaphases and dicentric chromosome detection).

[2] = WST-1 proliferation assay, PANC-1; type: cell-based; settings: human, PANC-1 cells (pancreas epithelioid carcinoma), vs 0.1% DMSO control = 100%, mean ± standard deviation
Experimental: A thorough analysis of antiproliferative activity was performed across various cell culture types representing different histotypes: leukemia (Jurkat, MOLT-4), lung adenocarcinoma (A549), colorectal adenocarcinoma (HT-29), pancreatic carcinoma (PANC-1), breast adenocarcinoma (MCF-7), osteosarcoma (SAOS-2), and one non-cancerous cell line (fetal lung fibroblasts MRC-5). The cell lines were exposed to the newly synthesized compounds at a concentration of 100 μM for 48 h in a single-dose treatment. Changes in cell proliferation compared to the vehicle 0.1% dimethyl sulfoxide (DMSO) control were determined using the WST-1 assay, which is based on mitochondrial dehydrogenase metabolic activities. […] The overall cytotoxic activity of each compound was expressed as growth percent (GP) – the mean of the proliferation of all cell lines treated with the same compound.
Selected human tumor and non-tumor cell lines Jurkat (acute T-cell leukemia), MOLT-4 (acute lymphoblastic leukemia), A549 (lung carcinoma), HT-29 (colorectal adenocarcinoma), PANC-1 (pancreas epithelioid carcinoma), MCF-7 (breast adenocarcinoma), SAOS-2 (osteosarcoma) and MRC-5 (normal lung fibroblasts) were purchased from either American Type Culture Collection (ATCC; VA, USA) or Sigma-Aldrich (St. Louis, MO, USA) and cultured according to the provider's culture method guidelines. All cell lines were maintained at 37 °C in a humidified 5% carbon dioxide and 95% air incubator. Cells in the maximum range of either 10 passages for the adherent cell lines (A549, HT-29, PANC-1, MCF-7, SAOS-2, and MRC-5), or 20 passages for suspension cell lines (Jurkat, MOLT-4,) and in an exponential growth phase were used for this study. Screening of the antiproliferative effect and growth percent calculation were conducted as follows: each cell line was seeded at previously established optimal density (1–50 × 10^3 cells per well) in a 96-well plate (TPP, Trasadingen, Switzerland) and cells were allowed to settle overnight. Cells were treated for 48 h with compounds at a final concentration of 100 μM. At the end of the cultivation period, the WST-1 proliferation assay (Roche, Basel, Switzerland) was performed according to the manufacturer's protocol. The absorbance was measured at 440 nm using a Tecan Spark multimode microplate reader (Tecan, Mannedorf, Switzerland). Each value is the mean of three independent experiments and represents the percentage of proliferation (100% cell proliferation for 0.1% DMSO mock-treated control cells). The GP value was calculated for each compound tested. GP represents the mean of the percentage proliferation decrease of all cell lines treated with the same compound.

[3] = 10 μM, 30 min pre-exposure, lower concentrations experiment
[4] = 100 μM, 30 min pre-exposure, higher concentrations experiment
[5] = 100 μM, 60 min pre-exposure, lower concentrations experiment
[6] = 500 μM (optimal non-toxic concentration), 60 min pre-exposure

Structure (SMILES)	RF (radioprotection factor) [1, 3]	RF (radioprotection factor) [1, 4]	viability at 48 h, 100 µM [2] [%]	RF (radioprotection factor) [1, 5]	RF (radioprotection factor) [1, 6]	RF (radioprotection factor) ([1]; 200 μM (optimal non-toxic concentration), 60 min pre-exposure)
NCCCNCCS [WR1065, reference compound]	1.59	1.96	3 ± 1			
NCCCNCCSP(=O)(O)O [WR2721, amifostine, reference compound]	1.33	1.45	8 ± 4			
OCCN1CCN(CC(O)COc2cccc(Cl)c2)CC1 (centres unmarked) [Compound 6, 1-(4-(2-Hydroxyethyl)piperazin-1-yl)-3-(3-chlorophenoxy)propan-2-ol]			94 ± 3	2.1	2.69	
COc1ccc(OCC(O)CN2CCN(CCO)CC2)c([N+](=O)[O-])c1 (centres unmarked) [Compound 2, 1-(4-(2-Hydroxyethyl)piperazin-1-yl)-3-(4-methoxy-2-nitrophenoxy)propan-2-ol]			104 ± 3	1.23	1.97	
O=[N+]([O-])c1cc(OCC(O)CN2CCN(CCO)CC2)ccc1Cl (centres unmarked) [Compound 5, 1-(4-(2-Hydroxyethyl)piperazin-1-yl)-3-(4-chloro-3-nitrophenoxy)propan-2-ol]			100 ± 3	1.65		1.91
OCCN1CCN(CC(O)COc2ccc(F)cc2)CC1 (centres unmarked) [Compound 4, 1-(4-(2-Hydroxyethyl)piperazin-1-yl)-3-(4-fluorophenoxy)propan-2-ol]			97 ± 1	1.65		
O=[N+]([O-])c1ccc(OCC(O)CN2CCN(CCO)CC2)c(F)c1 (centres unmarked) [Compound 3, 1-(4-(2-Hydroxyethyl)piperazin-1-yl)-3-(2-fluoro-4-nitrophenoxy)propan-2-ol]			90 ± 4	2.43	4.16	
COc1cc([N+](=O)[O-])ccc1OCC(O)CN1CCN(CCO)CC1 (centres unmarked) [Compound 1, 1-(4-(2-Hydroxyethyl)piperazin-1-yl)-3-(2-methoxy-4-nitrophenoxy)propan-2-ol]			108 ± 3	1.42	1.97	
